Data published in article PMC7044277 (Nature Communications, 2020).
Where “and” joins values, the source holds several entries; their conditions need not be identical. Equal values may be shown once.

What was measured:
Format in all cases: cell-based
[1] = target: 320 non-olfactory GPCRs (Homo sapiens, UniProt P41145); details: receptor OPRK1; replicate values, Fig_4g
[2] = target: 320 non-olfactory GPCRs (Homo sapiens, UniProt P21918)
[3] = target: T1, 320 non-olfactory GPCRs (Homo sapiens, UniProt Q6U736); details: receptor OPN5; replicate values, Fig_4g
T1 construct: expressed in transfected cells; host or cells: HTLA cells

[4] = target: T2, 320 non-olfactory GPCRs (Homo sapiens, UniProt P37288)
T2 construct: expressed in transfected cells; host or cells: HTLA cells
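For Fold of Basal in this document: compound tested at 1 µM final concentration.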
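For GPCRome agonism screen response in this document: fold over basal response of each receptor without drug.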

Chain of 320 non-olfactory GPCRs (Homo sapiens, UniProt P21918) (P21918 whole entry): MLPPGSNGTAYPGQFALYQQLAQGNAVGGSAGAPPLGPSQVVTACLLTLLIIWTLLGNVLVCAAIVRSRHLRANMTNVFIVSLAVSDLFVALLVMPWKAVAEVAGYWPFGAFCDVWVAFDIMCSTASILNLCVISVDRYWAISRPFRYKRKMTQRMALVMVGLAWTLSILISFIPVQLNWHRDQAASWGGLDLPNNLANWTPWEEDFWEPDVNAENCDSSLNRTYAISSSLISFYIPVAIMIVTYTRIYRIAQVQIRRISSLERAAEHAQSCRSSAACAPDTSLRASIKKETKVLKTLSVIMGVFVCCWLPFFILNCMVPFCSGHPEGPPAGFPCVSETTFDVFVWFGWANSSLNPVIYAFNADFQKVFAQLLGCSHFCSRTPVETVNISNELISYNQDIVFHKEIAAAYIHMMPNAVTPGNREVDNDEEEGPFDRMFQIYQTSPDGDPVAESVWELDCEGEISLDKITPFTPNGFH
Chain of 320 non-olfactory GPCRs (Homo sapiens, UniProt P41145) (P41145 whole entry): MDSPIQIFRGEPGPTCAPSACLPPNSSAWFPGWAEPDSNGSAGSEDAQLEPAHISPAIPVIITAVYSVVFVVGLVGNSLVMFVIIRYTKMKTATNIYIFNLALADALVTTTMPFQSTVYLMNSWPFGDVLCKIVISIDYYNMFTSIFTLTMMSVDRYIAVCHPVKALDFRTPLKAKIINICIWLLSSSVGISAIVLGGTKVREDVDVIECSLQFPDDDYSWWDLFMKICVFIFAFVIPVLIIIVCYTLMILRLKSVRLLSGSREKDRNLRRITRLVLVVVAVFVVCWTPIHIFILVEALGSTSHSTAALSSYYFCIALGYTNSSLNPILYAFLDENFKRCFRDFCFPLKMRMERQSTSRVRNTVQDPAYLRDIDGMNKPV
T2 sequence (P37288 whole entry): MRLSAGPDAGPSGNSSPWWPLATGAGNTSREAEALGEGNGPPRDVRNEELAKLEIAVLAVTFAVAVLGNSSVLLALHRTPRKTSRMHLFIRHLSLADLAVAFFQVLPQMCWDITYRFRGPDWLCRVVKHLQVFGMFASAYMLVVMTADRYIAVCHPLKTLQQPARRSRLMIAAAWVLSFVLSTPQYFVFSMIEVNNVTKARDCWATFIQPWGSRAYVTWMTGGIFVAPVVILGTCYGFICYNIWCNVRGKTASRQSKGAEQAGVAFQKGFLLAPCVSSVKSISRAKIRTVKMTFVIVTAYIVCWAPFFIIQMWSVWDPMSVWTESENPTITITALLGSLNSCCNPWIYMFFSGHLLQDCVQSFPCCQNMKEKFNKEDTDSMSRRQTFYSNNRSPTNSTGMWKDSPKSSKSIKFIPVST
T1 sequence (Q6U736 whole entry): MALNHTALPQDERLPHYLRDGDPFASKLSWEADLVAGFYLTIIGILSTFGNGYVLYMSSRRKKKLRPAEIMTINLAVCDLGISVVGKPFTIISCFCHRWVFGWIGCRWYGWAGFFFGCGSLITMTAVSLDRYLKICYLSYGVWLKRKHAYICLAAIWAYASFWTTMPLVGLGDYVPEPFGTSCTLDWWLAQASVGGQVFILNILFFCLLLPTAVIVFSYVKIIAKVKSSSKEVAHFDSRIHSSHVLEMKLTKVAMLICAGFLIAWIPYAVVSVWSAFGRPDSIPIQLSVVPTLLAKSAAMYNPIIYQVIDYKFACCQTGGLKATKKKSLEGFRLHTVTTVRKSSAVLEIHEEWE

CCOc1cccc2cc(C(C)NCC3(O)CCCCC3)oc12 (stereo not shown) [O4LE6]
GPCRome agonism screen response [1]: 0.2798 and 2.137 and 1.223 and 1.286
Fold of Basal [2]: 1.173 and 0.6004 and 0.7155 and 0.7884
GPCRome agonism screen response [3]: 0.05197 and 0.3541 and 1.246 and 1.464
Fold of Basal [4]: 0.5721 and 0.4612 and 0.3897 and 0.4481
